In one data set the test system is HeLa. Briefly: Induction of apoptosis in human HeLa cells assessed as early apoptotic cells at 12.5 nM incubated for 3 hrs with photo-irradiation at 54 J/cm2 by Annexin V-FITC/PI staining based flow cytometry relative to control. It is filed as functional.
A short description of data set [1]: Toxicity in Balb/C nu/nu mouse xenografted with human HeLa cells assessed as change in kidney histology at 2.5 umol/kg, iv with photo-irradiation at 30 J/cm2 after 1 hr of compound administration measured after 24 days by H and E staining based analysis. Type of data set: organism-based. The conditions noted are these: in vivo, 576 h, dose 2.5 µmol/kg, time 24 day.

A further data set concerns HUVEC. The data set is described as follows: Photodynamic cytotoxicity against HUVEC cells assessed as inhibition of cell viability incubated for 3 hrs followed by photo-irradiation at 54 J/cm2 measured after 24 hrs by CCK8 assay. Conditions: Homo sapiens, light or radiation study. Type of data set: functional, cell-based. A general note: Tetrazolium dyes change colour on reduction, which living cells bring about.

Consider `COc1ccc2c(c1)CCc1c(-c3ccccc3)c3n(c1-2)[B-](F)(F)[N+]1=C(c2ccc(OCC(=O)NCCCN4CCOCC4)cc2)C(I)=C(c2ccccc2)C1=N3`, for which the Activity with HeLa is 5.28%; in data set [1] it was “Non-Toxic”. Besides, the IC50 (commonly the concentration that inhibits the measured activity by half) with HUVEC turned out to be 11.9 nM.

For the origin of these results see ChEMBL document CHEMBL5338790, “Discovery of Subcellular-Targeted Aza-BODIPY Photosensitizers for Efficient Photodynamic Antitumor Therapy” (J Med Chem, 2023).
